Each block holds one molecule with its values, some of them ahead of it. The source made the active and inactive calls.
Tests used:
Format in all cases: functional
CHO-K1 = experiment: (§1) Counterscreen for antagonists of the orexin 1 receptor (OX1R; HCRTR1): Homogeneous time resolved fluorescence (HTRF)-based cell-based dose response assay to identify antagonists of the parental CHO-K1 cell line. [Related pubchem assays (depositor defined):AID434989, AID435008, AID463079, AID485270, AID492963, AID492964, AID492965, AID493232, AID504699, AID504701]; details: Cricetulus griseus
[1] = as §1, with “Fluorescence-based” for “Homogeneous time resolved fluorescence (HTRF)-based”, “cell-based high throughput” for “cell-based”, “CHO” for “CHO-K1”
[2] = target: T1, Orexin/Hypocretin receptor type 1 (Homo sapiens, UniProt O43613); experiment: Homogeneous Time Resolved Fluorescence (HTRF)-based cell-based high throughput dose response assay for antagonists of the orexin 1 receptor (OX1R; HCRTR1). [Related pubchem assays (depositor defined):AID434989, AID435008, AID463079, AID485270, AID492963, AID492964, AID492965, AID493232, AID504717, AID504718]
T1 sequence (O43613 whole entry): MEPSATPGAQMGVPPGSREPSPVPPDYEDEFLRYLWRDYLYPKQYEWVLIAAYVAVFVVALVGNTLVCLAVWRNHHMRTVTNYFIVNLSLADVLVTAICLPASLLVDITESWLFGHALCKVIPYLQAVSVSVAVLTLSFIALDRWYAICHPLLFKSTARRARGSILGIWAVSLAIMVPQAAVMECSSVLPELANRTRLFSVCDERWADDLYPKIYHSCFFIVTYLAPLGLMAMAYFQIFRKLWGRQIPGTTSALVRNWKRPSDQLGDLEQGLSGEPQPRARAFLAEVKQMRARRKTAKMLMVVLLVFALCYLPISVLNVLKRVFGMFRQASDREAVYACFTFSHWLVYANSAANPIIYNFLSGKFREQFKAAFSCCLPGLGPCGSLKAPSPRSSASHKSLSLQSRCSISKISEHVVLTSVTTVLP

[3] = target: T1, Orexin/Hypocretin receptor type 1; experiment: Fluorescence-based cell-based high throughput dose response assay for antagonists of the orexin 1 receptor (OX1R; HCRTR1). [Related pubchem assays (depositor defined):AID434989, AID435008, AID463079, AID485270, AID492963, AID492964, AID492965, AID493232, AID504717, AID504718]
Orexin receptor type 2 [4] = target: T2, Orexin receptor type 2 (Homo sapiens, UniProt O43614); experiment: Counterscreen assay for antagonists of the orexin 1 receptor (OX1R; HCRTR1): Fluorescence-based cell-based dose response assay for antagonists of the orexin 2 receptor (OX2R; HCRTR2), run by assay provider.
T2 sequence (O43614 whole entry): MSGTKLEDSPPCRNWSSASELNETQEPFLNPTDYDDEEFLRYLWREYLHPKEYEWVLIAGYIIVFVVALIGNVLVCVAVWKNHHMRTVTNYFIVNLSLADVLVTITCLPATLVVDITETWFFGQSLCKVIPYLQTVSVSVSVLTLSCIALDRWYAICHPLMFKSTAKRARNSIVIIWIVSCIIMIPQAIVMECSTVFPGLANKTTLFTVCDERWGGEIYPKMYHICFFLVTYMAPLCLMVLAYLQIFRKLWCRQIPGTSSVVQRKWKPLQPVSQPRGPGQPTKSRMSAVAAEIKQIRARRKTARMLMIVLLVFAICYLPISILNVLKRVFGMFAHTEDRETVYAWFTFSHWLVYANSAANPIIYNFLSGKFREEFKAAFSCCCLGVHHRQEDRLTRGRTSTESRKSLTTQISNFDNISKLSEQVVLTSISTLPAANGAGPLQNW

Orexin receptor type 2 [5] = target: T2, Orexin receptor type 2; experiment: Counterscreen assay for antagonists of the orexin 1 receptor (OX1R; HCRTR1): Homogeneous Time Resolved Fluorescence (HTRF)-based cell-based dose response assay for antagonists of the orexin 2 receptor (OX2R; HCRTR2), run by assay provider.
[6] = target: DNA (cytosine-5)-methyltransferase 1 (Homo sapiens, UniProt P26358); experiment: inhibition of DNA methylation by DNMT1 – biochemical, fluorescent molecular beacon, confirmation (AID 602386)
DNA (cytosine-5)-methyltransferase 1, sequence (P26358 whole entry): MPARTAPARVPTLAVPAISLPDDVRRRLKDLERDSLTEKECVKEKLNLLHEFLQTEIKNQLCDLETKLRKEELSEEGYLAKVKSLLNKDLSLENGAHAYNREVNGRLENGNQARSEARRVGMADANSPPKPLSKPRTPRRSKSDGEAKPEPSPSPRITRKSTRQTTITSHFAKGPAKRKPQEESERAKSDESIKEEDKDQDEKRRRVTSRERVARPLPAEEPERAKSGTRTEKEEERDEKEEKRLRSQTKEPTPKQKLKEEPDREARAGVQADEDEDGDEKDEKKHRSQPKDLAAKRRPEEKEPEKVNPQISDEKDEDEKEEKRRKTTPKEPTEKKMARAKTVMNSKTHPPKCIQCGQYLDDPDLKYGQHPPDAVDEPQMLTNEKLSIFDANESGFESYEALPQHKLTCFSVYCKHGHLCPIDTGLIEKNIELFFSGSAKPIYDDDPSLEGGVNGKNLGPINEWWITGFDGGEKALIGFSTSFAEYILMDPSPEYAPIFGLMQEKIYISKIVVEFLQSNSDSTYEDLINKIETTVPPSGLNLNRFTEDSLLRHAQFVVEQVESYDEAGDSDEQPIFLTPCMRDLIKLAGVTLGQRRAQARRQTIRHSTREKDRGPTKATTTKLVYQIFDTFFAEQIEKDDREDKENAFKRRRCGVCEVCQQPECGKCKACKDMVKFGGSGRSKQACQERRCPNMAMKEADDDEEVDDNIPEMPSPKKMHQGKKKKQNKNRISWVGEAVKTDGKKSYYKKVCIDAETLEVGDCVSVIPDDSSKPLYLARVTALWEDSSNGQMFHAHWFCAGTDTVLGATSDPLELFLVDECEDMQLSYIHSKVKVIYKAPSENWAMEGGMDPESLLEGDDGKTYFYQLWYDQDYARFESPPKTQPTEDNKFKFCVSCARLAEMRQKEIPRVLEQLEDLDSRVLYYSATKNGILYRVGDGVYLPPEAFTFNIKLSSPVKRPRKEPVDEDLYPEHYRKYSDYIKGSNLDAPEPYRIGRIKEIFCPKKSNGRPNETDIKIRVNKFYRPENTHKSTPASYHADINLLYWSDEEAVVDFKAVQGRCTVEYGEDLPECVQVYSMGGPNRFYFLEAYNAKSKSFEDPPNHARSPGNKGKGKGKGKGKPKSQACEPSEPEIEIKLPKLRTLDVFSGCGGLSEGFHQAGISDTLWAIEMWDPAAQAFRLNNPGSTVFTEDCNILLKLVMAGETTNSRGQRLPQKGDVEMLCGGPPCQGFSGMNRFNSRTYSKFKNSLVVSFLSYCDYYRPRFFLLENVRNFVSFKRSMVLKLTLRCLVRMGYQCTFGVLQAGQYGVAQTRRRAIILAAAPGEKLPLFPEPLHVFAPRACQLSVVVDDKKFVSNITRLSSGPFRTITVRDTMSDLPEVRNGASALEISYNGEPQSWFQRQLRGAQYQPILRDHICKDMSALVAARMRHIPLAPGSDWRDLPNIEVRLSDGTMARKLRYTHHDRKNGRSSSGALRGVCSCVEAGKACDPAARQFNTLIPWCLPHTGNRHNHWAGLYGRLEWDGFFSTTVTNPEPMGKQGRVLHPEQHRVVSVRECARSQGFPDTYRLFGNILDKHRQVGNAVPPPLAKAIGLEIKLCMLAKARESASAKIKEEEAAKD

[7] = target: Mitochondrial peptide methionine sulfoxide reductase (Bos taurus, UniProt P54149); experiment: Absorbance-based biochemical high throughput dose response assay for activators of Methionine sulfoxide reductase A (MsrA).
Mitochondrial peptide methionine sulfoxide reductase, sequence (P54149 whole entry): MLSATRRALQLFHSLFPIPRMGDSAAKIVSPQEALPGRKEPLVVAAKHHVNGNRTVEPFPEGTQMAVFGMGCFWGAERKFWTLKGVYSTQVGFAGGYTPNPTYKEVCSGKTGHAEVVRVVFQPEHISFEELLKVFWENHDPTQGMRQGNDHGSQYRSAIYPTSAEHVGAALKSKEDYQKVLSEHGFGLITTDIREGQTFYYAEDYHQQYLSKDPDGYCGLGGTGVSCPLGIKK

Caspase-3 = target: T3, Caspase-3 (Homo sapiens, UniProt P42574); experiment: inhibition of recombinant caspase-3 activity – biochemical, luminescence, set 2, selectivity assay for SENP protease inhibitor project, SAR follow-up (AID 588599)
T3 sequence (P42574 whole entry): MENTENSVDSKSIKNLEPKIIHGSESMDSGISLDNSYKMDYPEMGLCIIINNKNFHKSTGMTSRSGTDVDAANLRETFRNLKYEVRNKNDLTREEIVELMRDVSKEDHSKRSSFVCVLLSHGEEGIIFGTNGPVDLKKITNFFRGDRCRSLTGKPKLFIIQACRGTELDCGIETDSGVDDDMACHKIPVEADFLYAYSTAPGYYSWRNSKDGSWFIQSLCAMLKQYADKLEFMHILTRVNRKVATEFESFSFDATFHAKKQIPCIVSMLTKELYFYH

[8] = target: T4, Sentrin-specific protease 8 (Homo sapiens, UniProt Q96LD8); experiment: inhibition of sentrin protease 8 – biochemical, luminescence, set 2, SAR follow-up (AID 588601)
T4 sequence (Q96LD8 whole entry): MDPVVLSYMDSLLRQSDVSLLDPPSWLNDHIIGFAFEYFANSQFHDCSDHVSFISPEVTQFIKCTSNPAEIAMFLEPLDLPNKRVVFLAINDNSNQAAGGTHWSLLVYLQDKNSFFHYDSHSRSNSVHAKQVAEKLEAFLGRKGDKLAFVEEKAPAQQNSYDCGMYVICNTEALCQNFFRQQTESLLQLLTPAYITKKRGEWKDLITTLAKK

[9] = target: T5, Sentrin-specific protease 7 (Homo sapiens, UniProt Q9BQF6); experiment: inhibition of human SENP7 cleavage activity – biochemical, luminescence, set 2, SAR follow-up (AID 588600)
T5 sequence (Q9BQF6 whole entry): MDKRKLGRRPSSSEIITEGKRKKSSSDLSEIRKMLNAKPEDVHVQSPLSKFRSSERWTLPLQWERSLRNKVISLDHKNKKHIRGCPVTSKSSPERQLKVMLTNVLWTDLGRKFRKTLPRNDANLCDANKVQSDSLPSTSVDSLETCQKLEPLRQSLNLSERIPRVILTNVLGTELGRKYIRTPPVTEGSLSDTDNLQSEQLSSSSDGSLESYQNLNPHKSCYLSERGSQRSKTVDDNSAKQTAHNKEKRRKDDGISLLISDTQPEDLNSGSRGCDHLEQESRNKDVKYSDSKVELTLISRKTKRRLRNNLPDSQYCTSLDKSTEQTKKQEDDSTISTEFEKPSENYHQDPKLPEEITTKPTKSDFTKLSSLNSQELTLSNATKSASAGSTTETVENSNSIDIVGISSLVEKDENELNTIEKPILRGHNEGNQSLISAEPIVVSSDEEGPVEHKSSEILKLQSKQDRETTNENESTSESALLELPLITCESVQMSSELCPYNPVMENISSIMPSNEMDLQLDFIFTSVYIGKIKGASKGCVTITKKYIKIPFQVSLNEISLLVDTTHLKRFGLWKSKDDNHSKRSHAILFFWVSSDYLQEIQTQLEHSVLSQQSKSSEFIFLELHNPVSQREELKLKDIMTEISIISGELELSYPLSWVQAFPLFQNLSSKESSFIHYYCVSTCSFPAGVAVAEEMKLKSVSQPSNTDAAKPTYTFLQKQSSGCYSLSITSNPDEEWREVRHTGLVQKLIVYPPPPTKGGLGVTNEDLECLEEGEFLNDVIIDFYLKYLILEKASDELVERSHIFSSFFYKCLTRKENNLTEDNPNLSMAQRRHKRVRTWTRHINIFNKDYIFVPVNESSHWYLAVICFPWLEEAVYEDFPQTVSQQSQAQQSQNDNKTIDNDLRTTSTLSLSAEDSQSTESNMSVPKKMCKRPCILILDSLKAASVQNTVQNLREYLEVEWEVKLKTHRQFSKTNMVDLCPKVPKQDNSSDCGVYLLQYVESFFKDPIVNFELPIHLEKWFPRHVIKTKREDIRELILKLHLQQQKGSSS

[10] = target: T6, Sentrin-specific protease 6 (Homo sapiens, UniProt Q9GZR1); experiment: inhibition of human SENP6 catalytic domain – biochemical, luminescence, set 2, SAR follow-up (AID 588598)
T6 sequence (Q9GZR1 whole entry): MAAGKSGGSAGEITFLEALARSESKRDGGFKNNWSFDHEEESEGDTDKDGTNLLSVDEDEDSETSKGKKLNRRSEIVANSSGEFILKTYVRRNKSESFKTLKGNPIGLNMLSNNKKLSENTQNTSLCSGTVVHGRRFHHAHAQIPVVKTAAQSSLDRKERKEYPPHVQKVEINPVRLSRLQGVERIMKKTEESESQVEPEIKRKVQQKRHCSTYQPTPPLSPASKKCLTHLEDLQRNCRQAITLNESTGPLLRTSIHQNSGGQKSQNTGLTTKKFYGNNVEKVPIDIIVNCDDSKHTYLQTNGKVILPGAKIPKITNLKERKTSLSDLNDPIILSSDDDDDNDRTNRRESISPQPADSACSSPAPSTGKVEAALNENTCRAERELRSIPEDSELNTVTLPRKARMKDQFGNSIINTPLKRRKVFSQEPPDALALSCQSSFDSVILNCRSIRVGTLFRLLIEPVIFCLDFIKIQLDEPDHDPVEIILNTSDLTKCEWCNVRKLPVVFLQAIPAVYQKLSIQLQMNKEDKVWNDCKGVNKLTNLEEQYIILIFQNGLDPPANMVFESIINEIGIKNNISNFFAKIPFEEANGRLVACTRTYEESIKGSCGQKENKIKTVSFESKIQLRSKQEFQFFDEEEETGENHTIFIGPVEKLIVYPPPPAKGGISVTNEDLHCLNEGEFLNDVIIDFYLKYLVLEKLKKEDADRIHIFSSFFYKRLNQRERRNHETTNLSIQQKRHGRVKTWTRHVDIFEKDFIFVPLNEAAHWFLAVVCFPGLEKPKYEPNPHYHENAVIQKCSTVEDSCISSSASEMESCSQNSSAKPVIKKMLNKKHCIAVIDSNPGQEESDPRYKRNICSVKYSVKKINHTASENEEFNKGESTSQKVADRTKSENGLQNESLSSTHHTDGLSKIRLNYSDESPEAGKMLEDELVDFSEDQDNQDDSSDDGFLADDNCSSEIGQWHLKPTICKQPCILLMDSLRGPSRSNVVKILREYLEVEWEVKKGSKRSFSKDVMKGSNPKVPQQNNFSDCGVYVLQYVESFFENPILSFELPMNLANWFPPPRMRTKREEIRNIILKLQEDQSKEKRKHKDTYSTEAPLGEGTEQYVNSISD

[11] = target: Melanin-concentrating hormone receptor 1 (Homo sapiens, UniProt Q99705); experiment: Late-stage fluorescence-based counterscreen for antagonists of the G-protein coupled receptor 7 (GPR7): cell-based dose response assay to identify antagonists of the melanin-concentrating hormone receptor 1 (MCHR1) Set 6.
Melanin-concentrating hormone receptor 1, sequence (Q99705 whole entry): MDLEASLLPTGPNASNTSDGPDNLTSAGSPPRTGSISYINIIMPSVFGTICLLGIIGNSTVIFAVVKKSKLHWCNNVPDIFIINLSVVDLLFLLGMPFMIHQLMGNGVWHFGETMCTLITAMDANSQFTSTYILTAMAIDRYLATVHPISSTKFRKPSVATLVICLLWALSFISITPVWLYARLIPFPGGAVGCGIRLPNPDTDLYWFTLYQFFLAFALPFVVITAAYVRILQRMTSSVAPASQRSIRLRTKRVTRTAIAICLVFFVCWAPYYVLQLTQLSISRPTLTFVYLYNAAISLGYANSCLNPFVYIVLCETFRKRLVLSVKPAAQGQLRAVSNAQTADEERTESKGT

[12] = target: T7, Neuropeptides B/W receptor type 1 (Homo sapiens, UniProt P48145); experiment: human NPBW1 receptor blockade, IC50 – cell-based, fluorescence, dose response, set 6, late-stage follow-up (AID 588583)
T7 sequence (P48145 whole entry): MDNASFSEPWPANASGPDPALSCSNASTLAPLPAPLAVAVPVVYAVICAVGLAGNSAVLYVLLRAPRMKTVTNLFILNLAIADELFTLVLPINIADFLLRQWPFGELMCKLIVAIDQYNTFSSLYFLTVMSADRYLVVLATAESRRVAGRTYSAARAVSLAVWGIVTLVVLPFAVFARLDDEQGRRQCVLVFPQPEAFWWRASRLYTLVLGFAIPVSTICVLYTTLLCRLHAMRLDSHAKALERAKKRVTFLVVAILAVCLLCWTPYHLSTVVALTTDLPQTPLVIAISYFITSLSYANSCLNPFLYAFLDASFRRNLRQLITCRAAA

Aurora kinase A = Aurora kinase A (Homo sapiens, UniProt O14965);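 note: value from the Navigating the Kinome kinase panel profiling, panel entry STK6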
Aurora kinase A, sequence (O14965 whole entry): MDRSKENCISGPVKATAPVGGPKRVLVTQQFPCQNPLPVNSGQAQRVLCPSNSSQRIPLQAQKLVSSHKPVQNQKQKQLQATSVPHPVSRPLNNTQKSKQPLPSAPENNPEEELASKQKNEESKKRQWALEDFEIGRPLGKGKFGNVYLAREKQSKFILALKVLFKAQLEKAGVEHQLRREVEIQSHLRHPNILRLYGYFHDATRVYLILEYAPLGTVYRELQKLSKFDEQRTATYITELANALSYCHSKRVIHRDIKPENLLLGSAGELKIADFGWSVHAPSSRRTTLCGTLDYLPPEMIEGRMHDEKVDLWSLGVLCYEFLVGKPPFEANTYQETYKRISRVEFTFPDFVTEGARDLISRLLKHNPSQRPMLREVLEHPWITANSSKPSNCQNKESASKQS

Aurora kinase B = Aurora kinase B (Homo sapiens, UniProt Q96GD4)
Aurora kinase B, sequence (Q96GD4 whole entry): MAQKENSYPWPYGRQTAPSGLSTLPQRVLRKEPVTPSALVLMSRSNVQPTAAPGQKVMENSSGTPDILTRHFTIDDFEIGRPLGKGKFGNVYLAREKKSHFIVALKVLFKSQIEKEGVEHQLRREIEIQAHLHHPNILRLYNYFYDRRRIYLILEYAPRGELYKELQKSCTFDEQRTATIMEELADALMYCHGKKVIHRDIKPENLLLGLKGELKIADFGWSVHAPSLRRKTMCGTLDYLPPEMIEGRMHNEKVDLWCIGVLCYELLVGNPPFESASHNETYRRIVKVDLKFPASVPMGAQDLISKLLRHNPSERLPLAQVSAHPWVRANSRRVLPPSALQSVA

Structure (SMILES): COc1ccc(-c2cc3nc(-c4ccccc4)cc(N4CCC5(CC4)OCCO5)n3n2)cc1
IC50 (CHO-K1): > 66.2 µM (inactive) | IC50 [1]: > 49.8 µM (inactive) | IC50 [2]: 5.7 µM (active) | IC50 [3]: 23.6 µM (inactive) | IC50 (Orexin receptor type 2 [4]): 10.8 µM (inactive) | IC50 (Orexin receptor type 2 [5]): > 50 µM (inactive)

IC50 [6]: 1.34 µM (active) | EC50 [7]: > 104 µM (inactive)
Structure (SMILES): O=C1C(=O)c2c(ccc3ccccc23)-c2ccccc21

IC50 (Caspase-3): > 99 µM (inactive) | IC50 [9]: > 99 µM (inactive) | IC50 [10]: > 99 µM (inactive)
Structure (SMILES): CC1CN(C(=O)C(=O)c2c[nH]c3ccccc23)CC(C)O1 (configuration not stated)
IC50 [8]: > 99 µM (inactive)

IC50 (Caspase-3): > 99 µM (inactive) | IC50 [9]: > 99 µM (inactive) | IC50 [10]: > 99 µM (inactive)
Structure (SMILES): COCc1c(C(=O)Nc2nc3ccc(C)cc3s2)sc2cccc(F)c12
IC50 [8]: > 99 µM (inactive)

IC50 [11]: 484 nM (active) | IC50 [12]: 484 nM (active)
Structure (SMILES): Cc1ccccc1Cn1ncc(Cl)c(C(C#N)c2ccccc2)c1=O (configuration not stated)

IC50 [11]: 594 nM (active) | IC50 [12]: 594 nM (active)
Structure (SMILES): N#CC(c1ccc(Cl)cc1F)c1c(Cl)cnn(Cc2cccc3ccccc23)c1=O (configuration not stated)

Ki (Aurora kinase A): 126 nM (active) | Ki (Aurora kinase B): 7.94 nM (active)
Structure (SMILES): Cc1oc2ncnc(N)c2c1-c1ccc(NC(=O)Nc2cc(C(F)(F)F)ccc2F)cc1

Source: ChEMBL document CHEMBL1201862, “PubChem BioAssay data set” (2004)
